As a reminder, the Kd is the concentration at which binding is half-saturated. Higher therefore signals a looser complex.

What all share (type): binding
In assay [1] the target is T1, New Delhi metallo-β-lactamase-1 (NDM-1) (Klebsiella pneumoniae, UniProt C7C422).
T1 construct: gene blaNDM-1
Description: SPR (also fluorescence quenching; purified enzyme inhibition with meropenem, IC50 […]).

The target of assay [2] is T2, New Delhi metallo-β-lactamase-1 (NDM-1) (Klebsiella pneumoniae, UniProt C7C422, Q123A).
T2 construct: gene blaNDM-1
Description: SPR. Background: Surface plasmon resonance follows binding to a sensor surface in real time, without labels.

Assay [3] addresses T3, New Delhi metallo-β-lactamase-1 (NDM-1) (Klebsiella pneumoniae, UniProt C7C422, N220A).
T3 construct: gene blaNDM-1
Description: SPR.

With `CCCCCCCCCCCCc1ccc(S(=O)(=O)Nc2nncs2)cc1` [PHT427, 4-dodecyl-N-1,3,4-thiadiazol-2-yl-benzenesulfonamide], the results for the Kd in assay [1], in assay [2] and in assay [3] were 62.8 µM, 124 µM and 896 µM, respectively.

For the origin of these results see PMC10150926, “PHT427 as an effective New Delhi metallo-β-lactamase-1 (NDM-1) inhibitor restored the susceptibility of meropenem against Enterobacteriaceae producing NDM-1” (Frontiers in Microbiology, 2023).
